The values below come from patent publication US20170305943A1, “COMPOUNDS FOR THE TREATMENT OF BACTERIAL INFECTIONS” (priority 2014, published 2017).

In brackets after ≈: the same amount, converted by molar mass. Some results are limits rather than exact numbers.

What all share (test): Bacterial Assay: Determination of Antibacterial Activity (MIC, broth microdilution or agar dilution)
Common to all, as to type: cell-based
A general note: Broth dilution looks for growth in wells or tubes with falling amounts of substance.

Assay [1] concerns Clostridium difficile (Isolate ID 027-01). The following applies: Clostridioides difficile, 48 h, read-out: MIC (μg/mL) C. difficile (027-01). Summed up: (§1)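 MICs were set by CLSI broth microdilution or agar dilution for anaerobes, read visually after 48 hours at 37° C. under anaerobic gas packs. Medium was reinforced clostridial medium with 0.1% defibrinated horse blood; values are binned as A ≦1.01, B >1.0-4.0, C >4.0-16 μg/mL.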

Assay [2] deals with Clostridium difficile (Isolate ID ATCC 9689). The conditions noted are these: Clostridioides difficile, ATCC9689, 48 h, read-out: C. difficile MIC Activity Range. The gist of the method:
as §1

The subject of assay [3] is Clostridium difficile (Isolate ID BI-9). The following applies: Clostridioides difficile, 48 h, read-out: MIC (μg/mL) C. difficile (B-I9). Summed up: as §1

Consider `NC(=O)c1c(F)ccc(OCc2nc(-c3ccc(OC(F)(F)F)cc3)c(Br)o2)c1F` [Compound 209, 3-({5-bromo-4-[4-(trifluoromethoxy)phenyl]-1,3-oxazol-2-yl}methoxy)-2,6-difluorobenzamide], for which the MIC in assay [1] is 0.12 µg/mL (≈ 0.243 µM); in assay [2], below 1.01 µg/mL; in assay [3], 0.25 µg/mL (≈ 0.507 µM).

With `NC(=O)c1c(F)ccc(OCc2nc(-c3ccc(OC(F)(F)F)cc3)c(C(F)(F)F)o2)c1F` [Compound 213, 2,6-difluoro-3-({4-[4-(trifluoromethoxy)phenyl]-5-(trifluoromethyl)-1,3-oxazol-2-yl}methoxy)benzamide], the MIC in assay [1] was 0.12 µg/mL (≈ 0.249 µM); in assay [2], below 1.01 µg/mL; in assay [3], 0.25 µg/mL (≈ 0.518 µM).
